# Results published in the CombiSolv-Exp solvation set (Vermeire and Green 2021).
# Assay: solvent given as SMILES
smiles,measurement,setting,value
O=C(c1ccccc1)C(O)c1ccccc1 (stereo not given),"solvation free energy, 298 K",in C1COCCO1,-16.5 kcal/mol
same,"solvation free energy, 298 K",in CC(C)(C)O,-14.6 kcal/mol
same,"solvation free energy, 298 K",in CC(C)CCO,-14.6 kcal/mol
same,"solvation free energy, 298 K",in CC(C)CO,-14.6 kcal/mol
same,"solvation free energy, 298 K",in CC(C)O,-14.6 kcal/mol
same,"solvation free energy, 298 K",in CCC(C)O,-14.6 kcal/mol
same,"solvation free energy, 298 K",in CCCC(C)O,-14.5 kcal/mol
same,"solvation free energy, 298 K",in CCCCCCCCCCO,-14.5 kcal/mol
same,"solvation free energy, 298 K",in CCCCCCCCO,-14.6 kcal/mol
same,"solvation free energy, 298 K",in CCCCCCCO,-14.6 kcal/mol
same,"solvation free energy, 298 K",in CCCCCCO,-14.6 kcal/mol
same,"solvation free energy, 298 K",in CCCCCO,-14.7 kcal/mol
same,"solvation free energy, 298 K",in CCCCO,-14.7 kcal/mol
same,"solvation free energy, 298 K",in CCCCOC(C)=O,-15.4 kcal/mol
same,"solvation free energy, 298 K",in CCCCOCCCC,-14.2 kcal/mol
same,"solvation free energy, 298 K",in CCCO,-14.9 kcal/mol
same,"solvation free energy, 298 K",in CCO,-15 kcal/mol
same,"solvation free energy, 298 K",in CCOC(C)=O,-15.7 kcal/mol
same,"solvation free energy, 298 K",in CCc1ccccc1,-14.9 kcal/mol
same,"solvation free energy, 298 K",in COC(C)(C)C,-14.8 kcal/mol
same,"solvation free energy, 298 K",in COC(C)=O,-15.9 kcal/mol
same,"solvation free energy, 298 K",in Cc1ccc(C)cc1,-15 kcal/mol
same,"solvation free energy, 298 K",in Cc1ccccc1,-15.2 kcal/mol
same,"solvation free energy, 298 K",in Cc1ccccc1C,-15.1 kcal/mol
same,"solvation free energy, 298 K",in ClC(Cl)(Cl)Cl,-14.4 kcal/mol
same,"solvation free energy, 298 K",in ClC(Cl)Cl,-16.2 kcal/mol
same,"solvation free energy, 298 K",in ClCCCl,-16.1 kcal/mol
same,"solvation free energy, 298 K",in O,-11.9 kcal/mol
same,"solvation free energy, 298 K",in c1ccccc1,-15.6 kcal/mol
CN1C2CCC1CC(OC(=O)C(O)c1ccccc1)C2 (stereo not given),"solvation free energy, 298 K",in O,-13.8 kcal/mol
C1COCCOCCOCCOCCO1,"solvation free energy, 298 K",in Cc1cccc(C)c1,-10.9 kcal/mol
same,"solvation free energy, 298 K",in O,-12.8 kcal/mol
O=[N+]([O-])c1cccc(Cl)c1,"solvation free energy, 298 K",in O,-4.45 kcal/mol
C#CC=C,"solvation free energy, 298 K",in C1COCCO1,-3.21 kcal/mol
same,"solvation free energy, 298 K",in CC(C)=O,-3.19 kcal/mol
same,"solvation free energy, 298 K",in CC(C)CC(C)(C)C,-2.21 kcal/mol
same,"solvation free energy, 298 K",in CN(C)C=O,-3.28 kcal/mol
same,"solvation free energy, 298 K",in COC(C)=O,-3.19 kcal/mol
same,"solvation free energy, 298 K",in Cc1ccc(C)cc1,-3.07 kcal/mol
same,"solvation free energy, 298 K",in O,0.04 kcal/mol
CS(C)=O,"solvation free energy, 298 K",in CCCCCCCCCCCCCCCC,-4.14 kcal/mol
same,"solvation free energy, 298 K",in CCOC(C)=O,-6.66 kcal/mol
CCCCCCCl,"solvation free energy, 298 K",in O,0 kcal/mol
CCC(C)(C)CC,"solvation free energy, 298 K",in C=CCCCCCCCCCCCCCC,-3.89 kcal/mol
FC(F)(F)C(F)(F)Cl,"solvation free energy, 298 K",in CCCCCCCCC,-0.87 kcal/mol
same,"solvation free energy, 298 K",in CCCCCCCCO,-0.39 kcal/mol
same,"solvation free energy, 298 K",in CN1CCCC1=O,0.07 kcal/mol
same,"solvation free energy, 298 K",in CN(C)C=O,-1.54 kcal/mol
same,"solvation free energy, 298 K",in O,2.89 kcal/mol
Clc1ccc2c(c1)Oc1ccc(Cl)cc1O2,"solvation free energy, 298 K",in O,-3.67 kcal/mol
CC(C)C,"solvation free energy, 298 K",in C1CCC2CCCCC2C1,-2 kcal/mol
same,"solvation free energy, 298 K",in CC1COC(=O)O1,-0.87 kcal/mol
same,"solvation free energy, 298 K",in CC(C)(C)O,-1.86 kcal/mol
same,"solvation free energy, 298 K",in CC(C)=O,-1.87 kcal/mol
same,"solvation free energy, 298 K",in CC(C)CCO,-1.8 kcal/mol
same,"solvation free energy, 298 K",in CC(C)CO,-1.8 kcal/mol
same,"solvation free energy, 298 K",in CC(C)O,-1.9 kcal/mol
same,"solvation free energy, 298 K",in CCC(C)(C)O,-1.92 kcal/mol
same,"solvation free energy, 298 K",in CCC(C)CO,-1.8 kcal/mol
same,"solvation free energy, 298 K",in CCC(C)O,-1.79 kcal/mol
same,"solvation free energy, 298 K",in CCC(O)CC,-1.83 kcal/mol
same,"solvation free energy, 298 K",in CCCC(C)O,-1.8 kcal/mol
same,"solvation free energy, 298 K",in CCCCC,-2.38 kcal/mol
same,"solvation free energy, 298 K",in CCCCCC,-2.33 kcal/mol
same,"solvation free energy, 298 K",in CCCCCCC,-2.31 kcal/mol
same,"solvation free energy, 298 K",in CCCCCCCC,-2.3 kcal/mol
same,"solvation free energy, 298 K",in CCCCCCCCC,-2.2 kcal/mol
same,"solvation free energy, 298 K",in CCCCCCCCCC,-2.23 kcal/mol
same,"solvation free energy, 298 K",in CCCCCCCCCCCCCCCC,-1.91 kcal/mol
same,"solvation free energy, 298 K",in CCCCCCCO,-1.68 kcal/mol
same,"solvation free energy, 298 K",in CCCCCO,-1.79 kcal/mol
same,"solvation free energy, 298 K",in CCCCO,-1.91 kcal/mol
same,"solvation free energy, 298 K",in CCCO,-1.77 kcal/mol
same,"solvation free energy, 298 K",in CCO,-1.64 kcal/mol
same,"solvation free energy, 298 K",in CCOC(C)=O,-2.16 kcal/mol
same,"solvation free energy, 298 K",in CCOCC,-2.33 kcal/mol
same,"solvation free energy, 298 K",in CN1CCCC1=O,-1.2 kcal/mol
same,"solvation free energy, 298 K",in CN(C)C=O,-1.32 kcal/mol
same,"solvation free energy, 298 K",in CN(C)P(=O)(N(C)C)N(C)C,-1.53 kcal/mol
same,"solvation free energy, 298 K",in CO,-1.46 kcal/mol
same,"solvation free energy, 298 K",in COCCOCCOCCOC,-1.18 kcal/mol
same,"solvation free energy, 298 K",in CS(C)=O,-0.53 kcal/mol
same,"solvation free energy, 298 K",in Cc1ccc(C)cc1,-2.06 kcal/mol
same,"solvation free energy, 298 K",in Cc1cccc(C)c1,-2.07 kcal/mol
same,"solvation free energy, 298 K",in Cc1ccccc1C,-2.04 kcal/mol
same,"solvation free energy, 298 K",in ClC(Cl)(Cl)Cl,-2.37 kcal/mol
same,"solvation free energy, 298 K",in Clc1ccccc1,-2.25 kcal/mol
same,"solvation free energy, 298 K",in Nc1ccccc1,-1.07 kcal/mol
same,"solvation free energy, 298 K",in O,2.32 kcal/mol
same,"solvation free energy, 298 K",in O=CN1CCOCC1,-0.64 kcal/mol
same,"solvation free energy, 298 K",in OC1CCCCC1,-1.55 kcal/mol
same,"solvation free energy, 298 K",in OCCCOCCCO,-0.87 kcal/mol
same,"solvation free energy, 298 K",in OCCO,-0.19 kcal/mol
same,"solvation free energy, 298 K",in OCc1ccccc1,-1.16 kcal/mol
same,"solvation free energy, 298 K",in c1ccccc1,-2.08 kcal/mol
CCCCC(=O)OCCC(C)CCC=C(C)C (stereo not given),"solvation free energy, 298 K",in O,-2.51 kcal/mol
Cc1ccc(N(O)C(=O)COc2ccccc2)cc1,"solvation free energy, 298 K",in O,-12.8 kcal/mol
CC1=CCC(C(C)C)=CC1,"solvation free energy, 298 K",in O,-0.03 kcal/mol
O=C1OC(C(O)CO)C(O)=C1O (stereo not given),"solvation free energy, 298 K",in CCCO,-17.2 kcal/mol
same,"solvation free energy, 298 K",in CCO,-17.7 kcal/mol
CCCNCCC,"solvation free energy, 298 K",in O,-3.65 kcal/mol
CCCCCCCCCCCCCCO,"solvation free energy, 298 K",in CC(C)O,-12.3 kcal/mol
same,"solvation free energy, 298 K",in CCC(C)=O,-12.6 kcal/mol
same,"solvation free energy, 298 K",in CCCCCCCCC=CCCCCCCCC(=O)OCC(COC(=O)CCCCCCCC=CCCCCCCCC)OC(=O)CCCCCCCC=CCCCCCCCC,-9.9 kcal/mol
same,"solvation free energy, 298 K",in CCCCCCCCCCO,-12.1 kcal/mol
same,"solvation free energy, 298 K",in CCCCCCO,-12.2 kcal/mol
same,"solvation free energy, 298 K",in O,-3.08 kcal/mol
CCc1cnccn1,"solvation free energy, 298 K",in O,-5.45 kcal/mol
c1ccc2c(c1)[nH]c1ccccc12,"solvation free energy, 298 K",in CC(=O)N(C)C,-14 kcal/mol
same,"solvation free energy, 298 K",in CN1CCCC1=O,-14.5 kcal/mol
same,"solvation free energy, 298 K",in O,-7.18 kcal/mol
CCC(C)(C)C,"solvation free energy, 298 K",in C=CCCCCCCCCCCCCCC,-3.12 kcal/mol
same,"solvation free energy, 298 K",in CC#N,-2.32 kcal/mol
same,"solvation free energy, 298 K",in CC(C)CCCC(C)CCCC(C)CCCCC(C)CCCC(C)CCCC(C)C,-3 kcal/mol
same,"solvation free energy, 298 K",in CC(C)O,-2.73 kcal/mol
same,"solvation free energy, 298 K",in CCC(C)(C)OC,-3.49 kcal/mol
same,"solvation free energy, 298 K",in CCCCCC,-3.63 kcal/mol
same,"solvation free energy, 298 K",in CCCCCCCCCC,-3.38 kcal/mol
same,"solvation free energy, 298 K",in CCCCCCCCCCCCCCCC,-3.18 kcal/mol
same,"solvation free energy, 298 K",in CCCCCCCCCOC(=O)c1ccccc1C(=O)OCCCCCCCCC,-2.76 kcal/mol
same,"solvation free energy, 298 K",in CCCCCO,-2.93 kcal/mol
same,"solvation free energy, 298 K",in CCCCO,-2.89 kcal/mol
same,"solvation free energy, 298 K",in CN1CCCC1=O,-2.13 kcal/mol
same,"solvation free energy, 298 K",in CN(C)C=O,-2.33 kcal/mol
same,"solvation free energy, 298 K",in O,2.51 kcal/mol
c1nc[nH]n1,"solvation free energy, 298 K",in COC(C)=O,-10.3 kcal/mol
same,"solvation free energy, 298 K",in O,-11.6 kcal/mol
O=C(O)CCCCCCc1ccccc1,"solvation free energy, 298 K",in O,-8.72 kcal/mol
CCCl,"solvation free energy, 298 K",in CC(=O)N(C)C,-2.93 kcal/mol
same,"solvation free energy, 298 K",in CC(C)(C)O,-2.44 kcal/mol
same,"solvation free energy, 298 K",in CC(C)CCO,-2.43 kcal/mol
same,"solvation free energy, 298 K",in CC(C)CO,-2.43 kcal/mol
same,"solvation free energy, 298 K",in CC(C)O,-2.47 kcal/mol
same,"solvation free energy, 298 K",in CCC(C)(C)O,-2.5 kcal/mol
same,"solvation free energy, 298 K",in CCC(C)CO,-2.4 kcal/mol
same,"solvation free energy, 298 K",in CCC(C)O,-2.41 kcal/mol
same,"solvation free energy, 298 K",in CCC(O)CC,-2.41 kcal/mol
same,"solvation free energy, 298 K",in CCCC(C)O,-2.36 kcal/mol
same,"solvation free energy, 298 K",in CCCCCCCC(=O)OCC(COC(=O)CCCCCCC)OC(=O)CCCCCCC,-2.56 kcal/mol
same,"solvation free energy, 298 K",in CCCCCCCCC,-2.34 kcal/mol
same,"solvation free energy, 298 K",in CCCCCCCCO,-2.32 kcal/mol
same,"solvation free energy, 298 K",in CCCCCO,-2.47 kcal/mol
same,"solvation free energy, 298 K",in CCCCO,-2.5 kcal/mol
same,"solvation free energy, 298 K",in CCCO,-2.54 kcal/mol
same,"solvation free energy, 298 K",in CN(C)C=O,-2.74 kcal/mol
same,"solvation free energy, 298 K",in CO,-2.63 kcal/mol
same,"solvation free energy, 298 K",in Cc1ccc(C)cc1,-2.83 kcal/mol
same,"solvation free energy, 298 K",in Cc1cccc(C)c1,-2.87 kcal/mol
same,"solvation free energy, 298 K",in Cc1ccccc1C,-2.86 kcal/mol
same,"solvation free energy, 298 K",in Clc1ccccc1,-2.96 kcal/mol
same,"solvation free energy, 298 K",in N#Cc1ccccc1,-2.88 kcal/mol
same,"solvation free energy, 298 K",in O,-0.63 kcal/mol
CC1CCC(C)O1 (stereo not given),"solvation free energy, 298 K",in O,-2.92 kcal/mol
CCCOCCO,"solvation free energy, 298 K",in O,-6.4 kcal/mol
Clc1ccc(-c2ccc(Cl)c(Cl)c2Cl)c(Cl)c1Cl,"solvation free energy, 298 K",in O,-3.6 kcal/mol
